Literature values as cited in paper PMC7172884 (Journal of Molecular Biology, 2006).

Assays:
[1] = tested on: HAV; conditions: HAV-infected cells, inhibitor at 5 μM
[2] = target: T1, HAV 3C (Human hepatitis A virus genotype IB, UniProt P08617); conditions: in vitro, partial viral polyprotein (ΔP1-2A-2B) as substrate
T1 sequence (P08617 1520-1738 limits assumed): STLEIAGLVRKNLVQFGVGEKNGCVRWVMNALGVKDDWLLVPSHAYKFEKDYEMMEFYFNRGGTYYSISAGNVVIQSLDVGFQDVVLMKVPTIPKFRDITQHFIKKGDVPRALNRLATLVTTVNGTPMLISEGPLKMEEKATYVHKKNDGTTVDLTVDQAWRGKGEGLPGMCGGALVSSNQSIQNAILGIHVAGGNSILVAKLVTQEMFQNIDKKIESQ

**Q.** Which “reduction of viral yield” value [1] does the source give for “N-acetyl-leucyl-alanyl-alanyl-(N,N-dimethyl)-glutamine-fluoromethylketone [inhibitor Ia]” here?
**A.** 25 fold

**Q.** And the IC50 [2]?
**A.** 41 µM
